{"source": "patent US8034797B2", "about": "“Triazene compounds for the treatment of cancer” (Trin Therapeutics GmbH, priority 2007, dated 2011)", "key": {"Solubility in water": {"assay": "Solubility in water", "type": "physicochemical", "conditions": "water, 25 °C, water"}, "MAXF 401": {"tested_on": "MAXF 401", "assay": "MAXF 401 breast tumour xenograft in nude mice", "type": "in vivo", "experimental": "All the tests were carried out using female nude mice under standard conditions for the keeping of animals with controlled illumination and temperature. The animals were given water and food as desired.\n(§1) The increase in the volume of the individual tumours was measured using microcallipers, and the size of the tumour was calculated according to the formula a*b^2/2 (where a is the largest diameter of the tumour and b is the vertical axis). When the tumour volume had increased to 80-120 mm^3, the animals were allocated at random into test groups of in each case 6 animals.\nThe test compounds (in the form of sodium salts) were dissolved in a saline solution, and 5% Klucel (hydroxypropylcellulose) was added in order to dissolve all the test compounds in the same carrier. […] A volume of 10 ml/kg body weight was injected. Animals that received only the carrier served as control. The test compounds were treated according to the scheme of twice weekly administration over a period of […]. The tumour volume and the body weight were checked twice weekly, and the relative tumour volumes were calculated as the ratio of tumour size to body weight.\nOn the basis of the relative tumour volumes of the animals treated with the test compounds compared with the tumour volumes of the controls treated only with the carrier, the T/C values were calculated and were used as the index of anti-tumour activity.\nSubcutaneous implantation of the tumour and the determination of the tumour volume were carried out as described hereinbefore. The above-mentioned salts of the test substance were administered by ip injection twice weekly in the mentioned doses in the form of an aqueous solution, over a period of 4 weeks. […]\n(§2) Subcutaneous implantation of the tumour and the determination of tumour volumes were carried out as described hereinbefore. The test substance was administered by ip injection twice weekly in the mentioned doses in the form of the sodium salt as an aqueous solution, over a period of 4 weeks."}, "BXF 1218": {"tested_on": "BXF 1218", "assay": "Xenograft tumour panel, BXF 1218 (bladder)", "type": "in vivo, nude mice", "conditions": "450-540 mg/kg ip twice weekly, 7 d (control ended early); n.s.", "experimental": "as §1, with “Breast tumours (MAXF 401) were implanted subcutaneously into the rear members of the mice aged 10 weeks. The” for “The”\n(§3) To this end, xenografts of human tumours derived from prostate, uterine, lung, pancreatic, bladder and “head and neck” cancers were implanted in nude mice. The implantation and the determination of tumour volumes were carried out as described hereinbefore. Groups of 5 to 8 animals were used. The test substance was administered by ip injection twice weekly in the mentioned doses in the form of the sodium salt as an aqueous solution.\n(§4) The tumour xenografts used, the doses used, the duration of the therapy and a classification of observed anti-tumour actions are summarised in Table 2 below."}, "CXF 280": {"tested_on": "CXF 280", "assay": "CXF 280 colon carcinoma xenograft model", "type": "in vivo, nude mice", "experimental": "as §1, with “Breast tumours (MAXF 401) were implanted subcutaneously into the rear members of the mice aged 10 weeks. The” for “The”\nas §3, §4\nas §2, with “weeks. Groups of in each case 8 animals were used.” for “weeks.”"}, "HNXF 536": {"tested_on": "HNXF 536", "assay": "Xenograft tumour panel, HNXF 536 (head & neck)", "type": "in vivo, nude mice", "conditions": "450-540 mg/kg ip twice weekly, 28 d", "experimental": "as §1, with “Breast tumours (MAXF 401) were implanted subcutaneously into the rear members of the mice aged 10 weeks. The” for “The”\nas §3, §4"}, "LXFL 529": {"tested_on": "LXFL 529", "assay": "Xenograft tumour panel, LXFL 529 (lung)", "type": "in vivo, nude mice", "conditions": "450-540 mg/kg ip twice weekly, 10 d (control ended early)", "experimental": "as §1, with “Breast tumours (MAXF 401) were implanted subcutaneously into the rear members of the mice aged 10 weeks. The” for “The”\nas §3, §4"}, "MEXF 462": {"tested_on": "MEXF 462", "assay": "MEXF 462 melanoma xenograft model", "type": "in vivo, nude mice", "conditions": "for tumour volume in % of the tumour volume at the beginning of the test, Mean: 300 mg/kg ip twice weekly", "experimental": "as §1, with “Breast tumours (MAXF 401) were implanted subcutaneously into the rear members of the mice aged 10 weeks. The” for “The”, “animals. […]” for “animals.”\nThe anti-tumour activity of the compounds was determined in the MEXF 462 xenograft tumour model in the nude mouse. Subcutaneous implantation of the tumour and the determination of tumour volumes were carried out as described hereinbefore. Groups of in each case 8 animals were used.\nEquimolar amounts of the compound of Example 8 were administered ip twice weekly in the form of a 5% DMSO solution over the mentioned period.\nThe progression over time of the anti-tumour action, expressed in % of the tumour volume at the beginning of the test, over the period of therapy is shown in Table 3."}, "MEXF 276": {"tested_on": "MEXF 276", "assay": "Xenograft tumour panel, MEXF 276 (melanoma)", "type": "in vivo, nude mice", "conditions": "450-540 mg/kg ip twice weekly, 21 d (control ended early)"}, "PAXF 1657": {"tested_on": "PAXF 1657", "assay": "Xenograft tumour panel, PAXF 1657 (pancreas)", "type": "in vivo, nude mice", "conditions": "450-540 mg/kg ip twice weekly, 21 d (control ended early); n.s.", "experimental": "as §1, with “Breast tumours (MAXF 401) were implanted subcutaneously into the rear members of the mice aged 10 weeks. The” for “The”\nas §3, §4"}, "PRXF 22RV1": {"tested_on": "PRXF 22RV1", "assay": "Xenograft tumour panel, PRXF 22RV1 (prostate)", "type": "in vivo, nude mice", "conditions": "450-540 mg/kg ip twice weekly, 28 d", "experimental": "as §1, with “Breast tumours (MAXF 401) were implanted subcutaneously into the rear members of the mice aged 10 weeks. The” for “The”\nas §3, §4"}, "PRXF DU145": {"tested_on": "PRXF DU145", "assay": "Xenograft tumour panel, PRXF DU145 (prostate)", "type": "in vivo, nude mice", "conditions": "385-590 mg/kg ip twice weekly, 28 d", "experimental": "as §1, with “Breast tumours (MAXF 401) were implanted subcutaneously into the rear members of the mice aged 10 weeks. The” for “The”\nas §3, §4"}, "UXF 1138": {"tested_on": "UXF 1138", "assay": "Xenograft tumour panel, UXF 1138 (uterus)", "type": "in vivo, nude mice", "conditions": "450-540 mg/kg ip twice weekly, 21 d (control ended early)", "experimental": "as §1, with “Breast tumours (MAXF 401) were implanted subcutaneously into the rear members of the mice aged 10 weeks. The” for “The”\nas §3, §4"}, "Tumour-carrying mice": {"tested_on": "Tumour-carrying mice", "assay": "Nephrological tolerability (kidney post-mortem and histology)", "type": "in vivo", "experimental": "A control group was treated only with the carrier according to a twice weekly treatment scheme.\nWhen the 28-day treatment period had ended, a post-mortem was carried out on the mice. […] The kidneys of all the animals in the test groups were removed by operation, fixed in formalin according to standard methods, embedded in paraffin and processed for HE staining."}, "[1]": {"conditions": "dose range used (450-540 mg/kg)"}, "[2]": {"conditions": "extrapolated, ip twice weekly over 4 weeks"}, "[3]": {"conditions": "kidney histology after 28-day twice weekly ip treatment, equimolar to 450 mg of stock composition, affected/animals"}}, "note": "Where two headings read alike, the source gives them in different places."}
{"compound": "CN(C)/N=N/c1ccc(C(=O)c2ccc(OCCC(=O)NCC(=O)[O-])cc2)cc1.[Na+]", "note": "[Example 2a]", "values": [{"measurement": "solubility", "setting": "Solubility in water; 25° C., read-out: solubility in water at 25° C.", "value": 500, "unit": "mg/mL"}, {"measurement": "solubility", "setting": "Solubility in water; room temperature (25° C.), read-out: water solubility at room temperature (25° C.)", "value": 500, "unit": "mg/mL"}, {"measurement": "Max. effect", "setting": "MAXF 401; 300-540 mg/kg ip twice weekly, 28 d, ***", "value": "Remission ***"}, {"measurement": "ED50", "setting": "MAXF 401; Mus musculus, MAXF401, 672 h, ip twice weekly over 4 weeks, read-out: ED50 of the anti-tumour action", "value": 450, "unit": "mg/kg"}, {"measurement": "effect at the highest dose", "setting": "MAXF 401; highest dose, ip twice weekly over 4 weeks", "value": "remission of the tumours"}, {"measurement": "ED90 of the anti-tumour action", "setting": "MAXF 401; ip twice weekly over 4 weeks", "value": 500, "unit": "mg/kg"}, {"measurement": "threshold dose of the anti-tumour action", "setting": "MAXF 401; ip twice weekly over 4 weeks", "value": 300, "unit": "mg/kg"}, {"measurement": "Max. effect (Inhibition)", "setting": "BXF 1218", "value": "Inhibition <50% n.s."}, {"measurement": "anti-tumour action", "setting": "CXF 280; 450, 500 or 540 mg/kg ip twice weekly over 4 weeks, all doses", "value": "pronounced anti-tumour action"}, {"measurement": "Max. effect", "setting": "CXF 280; 450-540 mg/kg ip twice weekly, 28 d, ***", "value": "Remission ***"}, {"measurement": "ED50", "setting": "CXF 280; Mus musculus, 672 h, extrapolated, ip twice weekly over 4 weeks", "value": 390, "unit": "mg/kg"}, {"measurement": "tolerability", "setting": "CXF 280; [1]", "value": "well tolerated"}, {"measurement": "weight loss in the animals", "setting": "CXF 280; [1]", "value": "not associated with a significant weight loss"}, {"measurement": "ED20", "setting": "CXF 280; [2]", "value": 330, "unit": "mg/kg"}, {"measurement": "ED90", "setting": "CXF 280; [2]", "value": 490, "unit": "mg/kg"}, {"measurement": "Max. effect (Inhibition)", "setting": "HNXF 536", "value": "Inhibition <50% **"}, {"measurement": "Max. effect (Inhibition)", "setting": "LXFL 529", "value": "Inhibition <50% *"}, {"measurement": "Max. effect", "setting": "MEXF 462; 100-540 mg/kg ip twice weekly, 28 d, ***", "value": "Remission ***"}, {"measurement": "tumour volume in % of the tumour volume at the beginning of the test, Mean", "setting": "MEXF 462; day 0", "value": 100, "unit": "%"}, {"measurement": "tumour volume in % of the tumour volume at the beginning of the test, Mean", "setting": "MEXF 462; day 3", "value": 316, "unit": "%"}, {"measurement": "tumour volume in % of the tumour volume at the beginning of the test, Mean", "setting": "MEXF 462; day 7", "value": 240, "unit": "%"}, {"measurement": "tumour volume in % of the tumour volume at the beginning of the test, Mean", "setting": "MEXF 462; day 11", "value": 187, "unit": "%"}, {"measurement": "tumour volume in % of the tumour volume at the beginning of the test, Mean", "setting": "MEXF 462; day 14", "value": 166, "unit": "%"}, {"measurement": "tumour volume in % of the tumour volume at the beginning of the test, Mean", "setting": "MEXF 462; day 18", "value": 83, "unit": "%"}, {"measurement": "tumour volume in % of the tumour volume at the beginning of the test, Mean", "setting": "MEXF 462; day 21", "value": 67, "unit": "%"}, {"measurement": "tumour volume in % of the tumour volume at the beginning of the test, Mean", "setting": "MEXF 462; day 25", "value": 40, "unit": "%"}, {"measurement": "tumour volume in % of the tumour volume at the beginning of the test, Mean", "setting": "MEXF 462; day 28", "value": 30, "unit": "%"}, {"measurement": "outcome of treatment", "setting": "MEXF 462; equimolar doses ip twice weekly over 4 weeks", "value": "partial remission"}, {"measurement": "Max. effect (Inhibition)", "setting": "MEXF 276", "value": "Inhibition >50% ***"}, {"measurement": "Max. effect", "setting": "PAXF 1657", "value": "No anti-tumour"}, {"measurement": "Max. effect (Inhibition)", "setting": "PRXF 22RV1", "value": "Inhibition <50% **"}, {"measurement": "Max. effect (Inhibition)", "setting": "PRXF DU145", "value": "Inhibition >50% **"}, {"measurement": "Max. effect (Inhibition)", "setting": "UXF 1138", "value": "Inhibition >50% **"}, {"measurement": "macroscopic findings of the kidneys at post-mortem", "setting": "Tumour-carrying mice; after 28-day treatment period", "value": "without pathological findings"}, {"measurement": "Acute single-cell necrosis", "setting": "Tumour-carrying mice; [3]", "value": "0/9"}, {"measurement": "Focal tubular necrosis", "setting": "Tumour-carrying mice; [3]", "value": "0/9"}]}
